Assay results as given in US10005771B2, “Bicyclic derivatives having β2 adrenergic agonist and M3 muscarinic antagonist activities” (Almirall, S.A., priority 2014, dated 2018).

How the values were obtained:
[1] = molecular target: T1, human muscarinic M3 receptors (Homo sapiens, UniProt P20309); test: Human muscarinic M3 receptors binding assay ([3H]-NMS, CHO-K1 membranes); settings: membranes from CHO-K1 cells, [3H]-NMS radioligand, two hours incubation
T1 construct: purchased Perkin Elmer; host or cells: CHO-K1 cells
Procedure: Test 2: Human Muscarinic M3 Receptors Binding Assays
The study of binding to human muscarinic M3 receptors was performed using commercial membranes (Perkin Elmer) prepared from CHO-K1 cells.
Radioligand binding experiments were conducted in 96 polypropylene well plates in a total volume of 200 μl. All reagents were dissolved in assay binding buffer (PBS with calcium and magnesium, SIGMA), except compounds that were dissolved in DMSO 100%. Non-specific binding (NSB) was measured in the presence of 1 μM atropine. [3H]-NM, used as the radioligand was incubated with membranes that express human muscarinic M3 at concentration of 4.9 μg/well.
After an incubation period of two hours with gentle shaking, 150 μl of the reaction mix were transferred to 96 GF/C filter plates (Millipore), previously treated with wash buffer (Tris 50 mM; NaCl 100 mM; pH: 7.4), containing 0.05% PEI (Sigma) during one hour. Bound and free [3H]-NMS were separated by rapid vacuum filtration in a manifold from Millipore and washed four times with ice cold wash buffer. After drying 30 min, 30 μl of OPTIPHASE Supermix were added to each well and radioactivity quantified using a Microbeta microplate scintillation counter.
The affinity of each test compound to the receptor was determined by using ten different concentrations ran in duplicate. IC50s were calculated using Activity Base software from IDBS and the four parameters-log equation.

[2] = molecular target: T2, human adrenergic β2 receptor (Homo sapiens, UniProt P07550); test: Human adrenergic β2 receptor binding assay (3H-CGP12177, Sf9 membranes); settings: membranes from Sf9 cells, 0.6 nM 3H-CGP12177, 60 minutes at room temperature
T2 construct: purchased Perkin Elmer; host or cells: Sf9 cells
Procedure: Test 1: Human Adrenergic β1 and β2 Receptor Binding Assays
The study of binding to human adrenergic beta1 and beta2 receptors was performed using commercial membranes prepared from Sf9 cells where they are overexpressed (Perkin Elmer). The membrane suspensions (16 μg/well for beta1 and 5 μg/well for beta2) in assay buffer (75 mM Tris/HCl with 12.5 mM MgCl2 and 2 mM EDTA pH=7.4) were incubated with 0.14 or 0.6 nM of 3H-CGP12177 (Amersham) for beta 1 and beta 2 receptors respectively in a final volume of 250 μl, in GFC Multiscreen 96 well plates (Millipore) previously treated with assay buffer containing 0.3% PEI (Sigma). Non specific binding was measured in the presence of 1 μM propanolol. Incubation was maintained for 60 minutes at room temperature and with gentle shaking. The binding reactions were terminated by filtration and washing with 2.5 volumes of Tris/HCl 50 mM pH=7.4. The affinity of each test compound to the receptor was determined by using ten different concentrations ran in duplicate. IC50s were calculated using Activity Base software from IDBS and the four parameters-log equation.

T2 sequence (P07550 whole entry): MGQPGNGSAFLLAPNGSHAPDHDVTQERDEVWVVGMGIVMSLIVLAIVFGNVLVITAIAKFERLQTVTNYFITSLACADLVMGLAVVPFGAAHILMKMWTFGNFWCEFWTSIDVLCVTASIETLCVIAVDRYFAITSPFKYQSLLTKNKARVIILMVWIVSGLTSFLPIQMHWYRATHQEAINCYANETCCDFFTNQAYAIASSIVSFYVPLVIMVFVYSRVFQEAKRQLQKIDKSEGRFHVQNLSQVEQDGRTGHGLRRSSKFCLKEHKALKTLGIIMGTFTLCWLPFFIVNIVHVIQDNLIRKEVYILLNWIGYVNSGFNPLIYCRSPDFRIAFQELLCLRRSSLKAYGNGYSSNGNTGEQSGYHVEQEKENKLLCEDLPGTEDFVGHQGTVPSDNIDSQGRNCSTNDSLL
T1 sequence (P20309 whole entry): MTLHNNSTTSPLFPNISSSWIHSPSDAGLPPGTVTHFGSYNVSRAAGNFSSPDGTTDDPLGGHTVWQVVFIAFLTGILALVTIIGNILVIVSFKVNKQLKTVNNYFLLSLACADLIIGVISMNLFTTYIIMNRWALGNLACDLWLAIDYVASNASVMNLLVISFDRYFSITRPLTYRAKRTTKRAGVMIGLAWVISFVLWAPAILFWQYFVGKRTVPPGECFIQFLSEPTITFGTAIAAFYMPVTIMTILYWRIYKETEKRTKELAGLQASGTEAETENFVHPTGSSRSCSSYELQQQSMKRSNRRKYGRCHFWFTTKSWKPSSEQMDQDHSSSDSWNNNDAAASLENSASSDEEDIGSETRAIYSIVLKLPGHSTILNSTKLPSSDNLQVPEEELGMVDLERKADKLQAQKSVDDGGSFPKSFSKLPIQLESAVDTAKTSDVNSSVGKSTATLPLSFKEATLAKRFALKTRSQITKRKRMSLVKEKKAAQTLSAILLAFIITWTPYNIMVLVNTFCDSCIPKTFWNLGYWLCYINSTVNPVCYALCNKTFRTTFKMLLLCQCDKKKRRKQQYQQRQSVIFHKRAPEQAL

SMILES	IC50 [1] [nM]	IC50 [2] [nM]
O=C(O[C@H]1CN2CCC1CC2)C1(c2cccc(CCCCn3c(=O)oc4cc(CNC[C@H](O)c5ccc(O)c6[nH]c(=O)ccc56)ccc43)c2)CCCCC1 [Example 1, (3R)-1-azabicyclo[2.2.2]oct-3-yl 1-(3-{4-[6-({[(2R)-2-hydroxy-2-(8-hydroxy-2-oxo-1,2-dihydroquinolin-5-yl)ethyl]amino}methyl)-2-oxo-1,3-benzoxazol-3(2H)-yl]butyl}phenyl)cyclohexanecarboxylate]	1.6	4.3
COc1cc(OCC(=O)OC2CCC(Cc3cccc(C4(C(=O)O[C@H]5CN6CCC5CC6)CCCCC4)c3)CC2)c(Cl)cc1CNC[C@H](O)c1ccc(O)c2[nH]c(=O)ccc12 (stereo partly drawn) [Example 14, (3R)-1-azabicyclo[2.2.2]oct-3-yl 1-(3-{[4-({[2-chloro-4-({[(2R)-2-hydroxy-2-(8-hydroxy-2-oxo-1,2-dihydroquinolin-5-yl)ethyl]amino}methyl)-5-methoxyphenoxy]acetyl}oxy)cyclohexyl]methyl}phenyl)cyclohexanecarboxylate]	7.1	9
COc1cc(NC(=O)CCCc2cccc(C3(C(=O)OCC4CCNCC4)CCCCC3)c2)c(Cl)cc1CNC[C@H](O)c1ccc(O)c2[nH]c(=O)ccc12 [Example 28, piperidin-4-ylmethyl 1-[3-(4-{[2-chloro-4-({[(2R)-2-hydroxy-2-(8-hydroxy-2-oxo-1,2-dihydroquinolin-5-yl)ethyl]amino}methyl)-5-methoxyphenyl]amino}-4-oxobutyl)phenyl]cyclohexanecarboxylate]	0.36	2.2
O=C(O[C@H]1CN2CCC1CC2)C1(c2cccc(CCCCn3nnc4cc(CNC[C@H](O)c5ccc(O)c6[nH]c(=O)ccc56)ccc43)c2)CCCCC1 [Example 5, (3R)-1-azabicyclo[2.2.2]oct-3-yl 1-(3-{4-[5-({[(2R)-2-hydroxy-2-(8-hydroxy-2-oxo-1,2-dihydroquinolin-5-yl)ethyl]amino}methyl)-1H-1,2,3-benzotriazol-1-yl]butyl}phenyl)cyclohexanecarboxylate]	1.1	28
O=C(CCCc1cccc(C2(C(=O)O[C@H]3CN4CCC3CC4)CCCCC2)c1)NCCCCCNC[C@H](O)c1ccc(O)c2[nH]c(=O)ccc12 [Example 7, (3R)-1-azabicyclo[2.2.2]oct-3-yl 1-(3-{4-[(5-{[(2R)-2-hydroxy-2-(8-hydroxy-2-oxo-1,2-dihydroquinolin-5-yl)ethyl]amino}pentyl)amino]-4-oxobutyl}phenyl)cyclo hexanecarboxylate]	1.5	6.7
O=C(NCCCCc1cccc(C2(C(=O)O[C@H]3CN4CCC3CC4)CCCCC2)c1)c1ccc(CNC[C@H](O)c2ccc(O)c3[nH]c(=O)ccc23)nc1 [Example 21, (3R)-1-azabicyclo[2.2.2]oct-3-yl 1-{3-[4-({[6-({[(2R)-2-hydroxy-2-(8-hydroxy-2-oxo-1,2-dihydroquinolin-5-yl)ethyl]amino}methyl)pyridin-3-yl]carbonyl}amino)butyl]phenyl}cyclohexanecarboxylate]	0.6	34
COc1cc(NC(=O)CCCc2cccc(C3(C(=O)OCC45CCN(CC4)CC5)CCCCC3)c2)c(Cl)cc1CNC[C@H](O)c1ccc(O)c2[nH]c(=O)ccc12 [Example 18, 1-azabicyclo[2.2.2]oct-4-yl methyl 1-[3-(4-{[2-chloro-4-({[(2R)-2-hydroxy-2-(8-hydroxy-2-oxo-1,2-dihydroquinolin-5-yl)ethyl]amino}methyl)-5-methoxyphenyl]amino}-4-oxobutyl)phenyl]cyclohexanecarboxylate]	0.14	2.3
